pIC50: −log10 of the molar value. Where two headings read alike, the source gives them in different places.
Columns and labels:
MDA-MB-231 cells = assay: MTT assay for cell killing, breast cancer cell line MDA-MB-231; format: cell-based; details: for pIC50: Homo sapiens, MDA-MB-231, MTT, 72h
Protocol: The cytotoxicity of the peptides on the prostate cancer derived cell lines DU145, LnCaP, and PC3, and the breast cancer derived cell line MDA-MB-231 was tested as previously described (Morgan et al. 2014 ibid), using the MTT (3-[4,5-dimethylthiazol-2-yl]-2,5-diphenyltetrazolium bromide) assay for metabolic activity. 7000-16000 cells, depending on the cell line, were seeded onto 96-well cell plate and treated with 5, 10, 20, 40 and 80 μM of each compound for 72h, DMSO alone (negative control) for 72 hr, or HTL001 ([…]; International patent application published as WO2017068353; positive control) for 2 h. After treatment, MTT at a final concentration of 0.5 mg/ml was added. Upon 4h incubation the formed formazan crystals were dissolved in DMSO and the optical density (OD) measured at 540 nm with a spectrofluorimeter. Percentage of cell survival was calculated as a ratio of the mean OD value of treated vs. untreated cells. Experiments were repeated 3 times and statistical analysis performed using Student's t-test. All cell lines were cultured in RPMI media with added 10% FBS, 1% sodium pyruvate and 1% L-Glutamine. They were all cultured in an incubator at 37° C., 5% CO2. The assay was repeated 3 times and the results are given as the mean IC50 for cell killing±standard deviation.
The molecules were tested for their ability to induce cell death using the breast cancer cell line MDA-MB-231, with the HOX/PBX interfering peptide HTL001 (WYKWMKKAARRRRRRRRR; International patent application published as WO2017068353) as a positive control and DMSO as a negative control. Percentage of cell survival was evaluated with the MTT assay after treatment with different concentrations ([…], 10, 20, 40 and 80 μM) of each compound for 72h. The IC50 was evaluated as the concentration of the compound that reduces % of cell survival by half.
MDA-MB-231 cells were treated with different concentrations of Example 2 dissolved in either DMSO or PEG/Tris HCl and MTT assay performed. Data are means±SEM of four independent experiments.

MDA-MB-231 tumour = assay: In vivo study, MDA-MB-231 tumour in Balb-c nude mice; details: 20 mg/Kg, IP, day 0, 3, 6, 9, 10 & 13
Protocol: MDA-MB-231 cells were injected subcutaneously into female or male Balb-c nude mice aged 6 to 12 weeks (Harlan, UK). When the tumour size reached 100 mm^3 mice were injected intratumouraly with Example 2 at the intervals shown on the graph. Mice were sacrificed when the tumour size reached 1000 mm^3 or at the end of the experiment (14 days).
Treatment of MDA-MB-231 tumour with Example 2 (ICT9119): Group 1—Untreated controls Group 2—10% DMSO/Oil solvent control, IP, day 0, 3, 6, 9, 10 & 13 Group 3—Example 2, 20 mg/Kg, IP, day 0, 3, 6, 9, 10 & 13

DUSP1 [1] = assay: DUSP1 expression in DU145 prostate cancer cells (RT-PCR); format: cell-based; details: 4h, 120 μM in PEG/Tris HCl
Protocol: (§1) DU145 cells were treated for 4h with 120 μM Example 2 in PEG/Tris HCl. RNA was isolated and RT-PCR performed to detect expression of cFOS and DUSP1. Data are means±SEM of three independent experiments. *p<0.05 (Ttest).

DUSP1 [2] = assay: DUSP1 expression in PC3 prostate cancer cells (RT-PCR); format: cell-based; details: 4h, 120 μM in PEG/Tris HCl
Protocol: (§2) PC3 cells were treated for 4h with 120 μM Example 2 in PEG/Tris HCl. RNA was isolated and RT-PCR performed to detect expression of cFOS and DUSP1. Data are means±SEM of three independent experiments. Significance to PEG/Tris HCl: **p<0.01, ***p<0.001 (Ttest).

cFOS [3] = assay: cFOS expression in DU145 prostate cancer cells (RT-PCR); format: cell-based; details: 4h, 120 μM in PEG/Tris HCl
Protocol: as §1

Solubility studies = format: physicochemical
From the text: Example 2 was solubilised in PEG400 and propylene glycol (PG).

cFOS [4] = assay: cFOS expression in MDA-MB-231 cells (qRT-PCR); format: cell-based; details: for fold induction at 33 µM: Homo sapiens, qRT-PCR; for fold induction at 33 µM / cFos expression compared to untreated MDA-MB-231 cells: MDA-MB-231 cells, 2h, 33 μM
Protocol: MDA-MB-231 cells were seeded in 25 cm^2 plates and treated for 2h with 33 μM of each compound at 80% confluence. RNA was isolated using RNeasy Mini Kit-QIAGEN according to manufacturer's instructions and quantified with NanoDrop ND-1000. cDNA was generated from 1 μg of total RNA using High Capacity cDNA Reverse Transcription Kit in a 25 μl final reaction volume according to the manufacturer protocol. The expression of cFOS was quantified by qRT-PCR. Real-time PCR reactions were performed using 1:10 dilution (5 μl/well) of each cDNA added to TaqMan Universal PCR Master Mix and TaqMan Gene Expression Assay Hs00170630_m1 FOS. Amplification of glyceraldehyde 3-phosphate dehydrogenase (GAPDH) probe was performed as endogenous control. The comparative Ct method (ΔΔCt algorithm) was used for analysis. Independent experiments were performed in triplicates and repeated three times. Statistical analysis was performed with Student's t-test.
MDA MB 231 cells were treated for 4h with 4×IC50 Example 2 in PEG/Tris HCl. RNA was isolated and RT-PCR performed to detect expression of cFOS. Data are means±SEM of four independent experiments. Significance to PEG/Tris HCl: **p<0.01 (Ttest).

cFOS [5] = assay: cFOS expression in PC3 prostate cancer cells (RT-PCR); format: cell-based; details: 4h, 120 μM in PEG/Tris HCl
Protocol: as §2

HOXB4/PBX2 dimers = target: T1, HOXB4/PBX2 dimers (Homo sapiens, UniProt P40425); assay: Cell based ELISA assay for HOX/PBX binding (HOXB4/PBX2 dimer assay); details: MDA-MB-231 cells treated with 10 μM for 4 hours; compared to negative control (DMSO); read-out: % inhibition of HOXB4/PBX2 dimer formation
T1 construct: endogenous in cells; host or cells: MDA-MB-231
T1 sequence (P40425 1-430): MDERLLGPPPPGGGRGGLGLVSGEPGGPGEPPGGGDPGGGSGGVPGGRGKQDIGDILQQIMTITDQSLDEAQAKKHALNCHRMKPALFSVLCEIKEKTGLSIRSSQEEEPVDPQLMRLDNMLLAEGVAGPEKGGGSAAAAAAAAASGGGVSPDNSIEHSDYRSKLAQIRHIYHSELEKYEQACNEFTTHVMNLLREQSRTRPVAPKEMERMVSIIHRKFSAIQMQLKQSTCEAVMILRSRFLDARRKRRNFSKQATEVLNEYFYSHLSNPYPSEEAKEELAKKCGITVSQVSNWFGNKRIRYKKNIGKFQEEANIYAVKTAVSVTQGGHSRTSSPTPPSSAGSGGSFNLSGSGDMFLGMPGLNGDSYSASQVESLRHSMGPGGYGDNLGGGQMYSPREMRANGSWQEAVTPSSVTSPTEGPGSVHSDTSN
Protocol: In order to directly assess the ability of each compound to disrupt HOX/PBX binding a cell-based assay system was developed that could allow the formation of HOX/PBX/DNA dimers. Cultured MDA-MB-231 cells were treated with 10 μM of each compound for 4 hours and then used to generate a cell lysate using a standard preparation method as described below. HOXB4/PBX2 dimers were then measured using an ELISA-based system as detailed in the table below. The values from this assay are expressed as % inhibition of dimer formation compared to a negative control (DMSO).
1. Collect approximately 5.0×10^7 cells by low-speed centrifugation at RT for 5 min. Carefully remove culture medium. 2. Wash the cellular debris (pellet) with PBS at RT, and collect by low-speed centrifugation. Carefully remove supernatant (total protein). 3. Add 1.0 ml of pre-cold RIPA buffer (or other appropriate buffer) with freshly added (Protease Inhibitors) and/or (Phosphatase Inhibitors). Gently resuspend cells in RIPA buffer with a pipet and incubate on ice for 30 min. 4. Further disrupt and homogenize cells by passing through a 21-gauge needle, dounce homogenization or sonication, taking care not to raise the temperature of the lysate. (Optional: Add 10 μl of 10 mg/ml PMSF stock) Incubate 30 min on ice. 5. Transfer to microcentrifuge tube(s) and centrifuge at 10,000×g for 10 min at 4° C. […]

[6] = no induced cell death observed at 80 μM, read-out: IC50 values for the urea analogue reference examples
[7] = average of experiments, read-out: IC50 Average
[8] = single experiment 1, read-out: IC50 Exp1
[9] = single experiment 2, read-out: IC50 Exp2
[10] = single experiment 3, read-out: IC50 Exp3
[11] = MDA-MB-231 tumour in Balb-c nude mice
[12] = single experiment 4, read-out: IC50 Exp4

Structure (SMILES)	pIC50 (MDA-MB-231 cells; [6])	pIC50 (MDA-MB-231 cells; [7])	pIC50 (MDA-MB-231 cells; [8])	pIC50 (MDA-MB-231 cells; [9])	pIC50 (MDA-MB-231 cells; [10])	other results
CCCNC(=O)NCC(c1ccsc1)c1c[nH]c2ccccc12 (stereo not shown) [C, reference compound]	< 4.10	–	–	–	–	–
CNC(=S)NCC(c1cccs1)c1c[nH]c2ccccc12 (stereo not shown) [Example 6]	–	4.21	4.17	4.32	4.16	–
O=C(NCC1CC1)NCC(c1cccs1)c1c[nH]c2ccccc12 (stereo not shown) [B, reference compound]	< 4.10	–	–	–	–	–
CCNC(=S)NCC(c1cccs1)c1c[nH]c2ccccc12 (stereo not shown) [Example 7]	–	4.22	4.29	4.18	4.19	–
CCCCCCNC(=S)NCC(c1cccs1)c1c[nH]c2ccccc12 (stereo not shown) [Example 2, 1-hexyl-3-[2-(1H-indol-3-yl)-2-(2-thienyl)ethyl]thiourea]	–	4.42	4.43	4.41	–	Maximum % weight loss (MDA-MB-231 tumour; Balb-c nude mice): 0%; Growth delay (MDA-MB-231 tumour; [11]): 4.2 days; Median time RTV 2 (MDA-MB-231 tumour; [11]): 8.9 days; DUSP1 expression in DU145 cells (DUSP1 [1]): significantly increased; DUSP1 expression in PC3 cells (DUSP1 [2]): significantly increased; MDA-MB-231 cell survival, in PEG/Tris HCl in comparison with in DMSO (MDA-MB-231 cells; MTT assay, four independent experiments, p<0.05): significantly decreased; cFOS expression in DU145 cells (cFOS [3]): significantly increased; behaviour on dilution with water (Solubility studies; diluted with water with polysorbate 80 (Tween 80) at a final concentration of 5%): remained in solution; concentration achieved in propylene glycol (PG) (Solubility studies; solubilised in PG): up to 5 mg/mL; cFOS expression in MDA-MB-231 cells (cFOS [4]; 4h, 4×IC50, in PEG/Tris HCl, p<0.01 to PEG/Tris HCl): significantly increased; cFOS expression in PC3 cells (cFOS [5]): significantly increased
CCCCNC(=S)NCC(c1cccs1)c1c[nH]c2ccccc12 (stereo not shown) [Example 9]	–	4.38	4.39	4.43	4.53	pIC50 (MDA-MB-231 cells; [12]): 4.39; pIC50 (MDA-MB-231 cells; single experiment 5, read-out: IC50 Exp5): 4.24
CCCNC(=S)NCC(c1cccs1)c1c[nH]c2ccccc12 (stereo not shown) [Example 8]	–	4.29	4.37	4.31	4.25	pIC50 (MDA-MB-231 cells; [12]): 4.22
CCCCCCCNC(=S)NCC(c1cccs1)c1c[nH]c2ccccc12 (stereo not shown) [Example 1, 1-heptyl-3-[2-(1H-indol-3-yl)-2-(2-thienyl)ethyl]thiourea]	–	4.48	4.66	4.35	–	fold induction at 33 µM (cFOS [4]): 32.5; cFos expression compared to untreated MDA-MB-231 cells (cFOS [4]): significant increase
C=C(C)CNC(=O)NCC(c1ccsc1)c1c[nH]c2ccccc12 (stereo not shown) [D, reference compound]	< 4.10	–	–	–	–	–
S=C(NCC1CCCCC1)NCC(c1cccs1)c1c[nH]c2ccccc12 (stereo not shown) [Example 4, 1-cyclohexylmethyl-3-[2-(1H-indol-3-yl)-2-(2-thienyl)ethyl]thiourea]	–	4.28	4.18	4.40	–	–
C#CCNC(=O)NCC(c1cccs1)c1c[nH]c2ccccc12 (stereo not shown) [A, reference compound]	< 4.10	–	–	–	–	–
CCCCCNC(=S)NCC(c1cccs1)c1c[nH]c2ccccc12 (stereo not shown) [Example 3, 1-pentyl-3-[2-(1H-indol-3-yl)-2-(2-thienyl)ethyl]thiourea]	–	4.45	4.67	4.31	–	–
C=C(C)CNC(=S)NCC(c1cccs1)c1c[nH]c2ccccc12 (stereo not shown) [Example 5]	–	4.34	4.32	4.35	4.36	inhibition at 10 µM (HOXB4/PBX2 dimers): 39.2%; fold induction at 33 µM (cFOS [4]): 37.4; cFos expression compared to untreated MDA-MB-231 cells (cFOS [4]): significant increase
